Experimental data reported in ChEMBL document CHEMBL5523681, “Lysosome-targeted Aza-BODIPY photosensitizers for anti-cancer photodynamic therapy” (Bioorg Med Chem, 2024).
Active and inactive are the calls of the source. No cut-off for these calls is given here.

tested on: not listed separately; assay: Stability of compound in emulsified PBS buffer under dark condition; type: physicochemical; conditions: not given

Row | Compound | Stability
1 | CCN(CC)Cc1ccc(C2=C(I)C(c3ccc(OC)cc3)=[N+]3C2=Nc2c(-c4ccc(CN(CC)CC)cc4)cc(-c4ccc(OC)cc4)n2[B-]3(F)F)cc1 | Stable

tested on: not listed separately; assay: Dark toxicity in human HeLa cells incubated for 3 hrs by CCK-8 assay; type: cell-based; conditions: not given

Row | Compound | IC50 at 3 h
2 | CCN(CC)Cc1ccc(C2=C(I)C(c3ccc(OC)cc3)=[N+]3C2=Nc2c(-c4ccc(CN(CC)CC)cc4)cc(-c4ccc(OC)cc4)n2[B-]3(F)F)cc1 | > 50 µM

tested on: HeLa; assay: Cytotoxicity against human HeLa cells preincubated with compound for 3 hrs followed by 81 J/cm2 light irradiation and measured after 24 hrs by CCK8 assay; type: functional, cell-based; conditions: light or radiation study

Row | Compound | IC50
3 | CCN(CC)Cc1ccc(C2=C(I)C(c3ccc(OC)cc3)=[N+]3C2=Nc2c(-c4ccc(CN(CC)CC)cc4)cc(-c4ccc(OC)cc4)n2[B-]3(F)F)cc1 | 0.0053 µM

tested on: not listed separately; assay: Ratio of singlet oxygen quantum yield in DMF at pH 5.2 in presence of HCl to singlet oxygen quantum yield in DMF at pH 7; type: functional; conditions: not given

Row | Compound | Ratio
4 | CCN(CC)Cc1ccc(C2=C(I)C(c3ccc(OC)cc3)=[N+]3C2=Nc2c(-c4ccc(CN(CC)CC)cc4)cc(-c4ccc(OC)cc4)n2[B-]3(F)F)cc1 | 1.48

tested on: not listed separately; assay: Stability of compound in CH3CN under dark condition; type: physicochemical; conditions: not given

Row | Compound | Stability
5 | CCN(CC)Cc1ccc(C2=C(I)C(c3ccc(OC)cc3)=[N+]3C2=Nc2c(-c4ccc(CN(CC)CC)cc4)cc(-c4ccc(OC)cc4)n2[B-]3(F)F)cc1 | Stable

tested on: not listed separately; assay: Drug localization in endoplasmic reticulum of human HeLa cells at 5 uM incubated for 3 hrs by ER-Tracker blue dye based confocal scanning microscopic analysis; type: ADME, subcellular; conditions: not given

Row | Compound | Drug uptake
6 | CCN(CC)Cc1ccc(C2=C(I)C(c3ccc(OC)cc3)=[N+]3C2=Nc2c(-c4ccc(CN(CC)CC)cc4)cc(-c4ccc(OC)cc4)n2[B-]3(F)F)cc1 | Not Active

tested on: not listed separately; assay: Drug uptake in liver of female BALB/c nude mouse xenografted with human HeLa cells at 2 mg/kg, iv measured after 3 hrs by fluorescence imaging analysis; type: ADME, organism-based; conditions: in vivo

Row | Compound | Drug uptake
7 | CCN(CC)Cc1ccc(C2=C(I)C(c3ccc(OC)cc3)=[N+]3C2=Nc2c(-c4ccc(CN(CC)CC)cc4)cc(-c4ccc(OC)cc4)n2[B-]3(F)F)cc1 | Active

tested on: not listed separately; assay: Drug uptake in human HeLa cells assessed as increase in fluorescence intensity at 5 uM by confocal scanning microscopic analysis; type: ADME, cell-based; conditions: 5 h, TDE = time-dependent effect

Row | Compound | Drug uptake
8 | CCN(CC)Cc1ccc(C2=C(I)C(c3ccc(OC)cc3)=[N+]3C2=Nc2c(-c4ccc(CN(CC)CC)cc4)cc(-c4ccc(OC)cc4)n2[B-]3(F)F)cc1 | Tde

tested on: not listed separately; assay: Toxicity in female BALB/c nude mouse xenografted with human HeLa cells assessed as decrease in body weight at 2 mg/kg, iv preadministered with compound for 3 hrs followed by 54 J/cm2 light irradiation and measured after 24 days; type: organism-based; conditions: in vivo, 576 h, time 24 day

Row | Compound | Activity
9 | CCN(CC)Cc1ccc(C2=C(I)C(c3ccc(OC)cc3)=[N+]3C2=Nc2c(-c4ccc(CN(CC)CC)cc4)cc(-c4ccc(OC)cc4)n2[B-]3(F)F)cc1 | Non-Toxic

tested on: HepG2; assay: Cytotoxicity against human HepG2 cells preincubated with compound for 3 hrs followed by 81 J/cm2 light irradiation and measured after 24 hrs by CCK8 assay; type: functional, cell-based; conditions: HepG2, light or radiation study

Row | Compound | IC50
10 | CCN(CC)Cc1ccc(C2=C(I)C(c3ccc(OC)cc3)=[N+]3C2=Nc2c(-c4ccc(CN(CC)CC)cc4)cc(-c4ccc(OC)cc4)n2[B-]3(F)F)cc1 | 0.0151 µM

tested on: not listed separately; assay: Photosensitizing ability of the compound in PBS at pH 7.4 assessed as singlet oxygen production by measuring relative degradation rate of DPBF at 411 nm under photoirradiation with 90 mW/cm2 light by absorbance based assay; type: functional; conditions: not given

Row | Compound | Activity
11 | CCN(CC)Cc1ccc(C2=C(I)C(c3ccc(OC)cc3)=[N+]3C2=Nc2c(-c4ccc(CN(CC)CC)cc4)cc(-c4ccc(OC)cc4)n2[B-]3(F)F)cc1 | 1.07

tested on: HeLa; assay: Antitumor activity against human HeLa cells xenografted in female BALB/c nude mouse assessed as inhibition of tumor growth at 2 mg/kg, iv preadministered with compound for 3 hrs followed by 54 J/cm2 light irradiation and measured after 24 days; type: functional, organism-based; conditions: time 24.0 day

Row | Compound | Activity
12 | CCN(CC)Cc1ccc(C2=C(I)C(c3ccc(OC)cc3)=[N+]3C2=Nc2c(-c4ccc(CN(CC)CC)cc4)cc(-c4ccc(OC)cc4)n2[B-]3(F)F)cc1 | Active

tested on: not listed separately; assay: Photosensitizing ability of the compound in DMF at pH 7 assessed as singlet oxygen quantum yield; type: functional; conditions: not given

Row | Compound | Activity
13 | CCN(CC)Cc1ccc(C2=C(I)C(c3ccc(OC)cc3)=[N+]3C2=Nc2c(-c4ccc(CN(CC)CC)cc4)cc(-c4ccc(OC)cc4)n2[B-]3(F)F)cc1 | 0.44

tested on: HeLa; assay: Antitumor activity against human HeLa cells xenografted in female BALB/c nude mouse assessed as reduction in tumor size at 2 mg/kg, iv preadministered with compound for 3 hrs followed by 54 J/cm2 light irradiation and measured after 24 days relative to control; type: functional; parameters: scale not given: the % may be the effect or the level left; conditions: time 24 day

Row | Compound | Activity
14 | CCN(CC)Cc1ccc(C2=C(I)C(c3ccc(OC)cc3)=[N+]3C2=Nc2c(-c4ccc(CN(CC)CC)cc4)cc(-c4ccc(OC)cc4)n2[B-]3(F)F)cc1 | 60%

tested on: not listed separately; assay: Drug uptake in female BALB/c nude mouse xenografted with human HeLa cells at 2 mg/kg, iv measured after 3 hrs by fluorescence imaging analysis; type: ADME, organism-based; conditions: in vivo

Row | Compound | Drug uptake
15 | CCN(CC)Cc1ccc(C2=C(I)C(c3ccc(OC)cc3)=[N+]3C2=Nc2c(-c4ccc(CN(CC)CC)cc4)cc(-c4ccc(OC)cc4)n2[B-]3(F)F)cc1 | Active

tested on: not listed separately; assay: Photostability of compound in emulsified PBS buffer in presence of […] light irradiation measured upto 10 mins by absorption based assay; type: physicochemical; conditions: not given

Row | Compound | Stability
16 | CCN(CC)Cc1ccc(C2=C(I)C(c3ccc(OC)cc3)=[N+]3C2=Nc2c(-c4ccc(CN(CC)CC)cc4)cc(-c4ccc(OC)cc4)n2[B-]3(F)F)cc1 | Stable

tested on: B16-F10; assay: Cytotoxicity against mouse B16-F10 cells preincubated with compound for 3 hrs followed by 81 J/cm2 light irradiation and measured after 24 hrs by CCK8 assay; type: functional, cell-based; conditions: B16-F10, light or radiation study

Row | Compound | IC50
17 | CCN(CC)Cc1ccc(C2=C(I)C(c3ccc(OC)cc3)=[N+]3C2=Nc2c(-c4ccc(CN(CC)CC)cc4)cc(-c4ccc(OC)cc4)n2[B-]3(F)F)cc1 | 0.0079 µM

tested on: not listed separately; assay: Dark toxicity in human HepG2 cells incubated for 3 hrs by CCK-8 assay; type: cell-based; conditions: not given

Row | Compound | IC50 at 3 h
18 | CCN(CC)Cc1ccc(C2=C(I)C(c3ccc(OC)cc3)=[N+]3C2=Nc2c(-c4ccc(CN(CC)CC)cc4)cc(-c4ccc(OC)cc4)n2[B-]3(F)F)cc1 | > 50 µM

tested on: not listed separately; assay: Photosensitizing ability of the compound in DMF at pH 5.2 assessed as singlet oxygen quantum yield in presence of HCl; type: functional; conditions: not given

Row | Compound | Activity
19 | CCN(CC)Cc1ccc(C2=C(I)C(c3ccc(OC)cc3)=[N+]3C2=Nc2c(-c4ccc(CN(CC)CC)cc4)cc(-c4ccc(OC)cc4)n2[B-]3(F)F)cc1 | 0.65

tested on: HeLa; assay: Induction of ROS production in human HeLa cells assessed as increase in fluorescence intensity at 20 to 500 nM incubated for 3 hrs in presence of 81 J/cm2 light irradiation by confocal scanning microscopic analysis; type: functional, cell-based; conditions: dose 20-500 nM

Row | Compound | Activity
20 | CCN(CC)Cc1ccc(C2=C(I)C(c3ccc(OC)cc3)=[N+]3C2=Nc2c(-c4ccc(CN(CC)CC)cc4)cc(-c4ccc(OC)cc4)n2[B-]3(F)F)cc1 | Active

tested on: not listed separately; assay: Fluorescence property of compound assessed as quantum yield; type: physicochemical; conditions: not given

Row | Compound | Activity
21 | CCN(CC)Cc1ccc(C2=C(I)C(c3ccc(OC)cc3)=[N+]3C2=Nc2c(-c4ccc(CN(CC)CC)cc4)cc(-c4ccc(OC)cc4)n2[B-]3(F)F)cc1 | 0.05

tested on: not listed separately; assay: Drug uptake in spleen of female BALB/c nude mouse xenografted with human HeLa cells at 2 mg/kg, iv measured after 3 hrs by fluorescence imaging analysis; type: ADME, organism-based; conditions: in vivo

Row | Compound | Drug uptake
22 | CCN(CC)Cc1ccc(C2=C(I)C(c3ccc(OC)cc3)=[N+]3C2=Nc2c(-c4ccc(CN(CC)CC)cc4)cc(-c4ccc(OC)cc4)n2[B-]3(F)F)cc1 | Active

tested on: not listed separately; assay: Ratio of relative degradation rate of DPBF in PBS at pH 5.2 in presence of HCl to relative degradation rate of DPBF in PBS at pH 7; type: physicochemical; conditions: buffer

Row | Compound | Ratio
23 | CCN(CC)Cc1ccc(C2=C(I)C(c3ccc(OC)cc3)=[N+]3C2=Nc2c(-c4ccc(CN(CC)CC)cc4)cc(-c4ccc(OC)cc4)n2[B-]3(F)F)cc1 | 1.36

tested on: not listed separately; assay: Photosensitizing ability of the compound in PBS at pH 5.2 in presence of HCl assessed as singlet oxygen production by measuring relative degradation rate of DPBF at 411 nm under photoirradiation with 90 mW/cm2 light by absorbance based assay; type: functional; conditions: not given

Row | Compound | Activity
24 | CCN(CC)Cc1ccc(C2=C(I)C(c3ccc(OC)cc3)=[N+]3C2=Nc2c(-c4ccc(CN(CC)CC)cc4)cc(-c4ccc(OC)cc4)n2[B-]3(F)F)cc1 | 1.45

tested on: not listed separately; assay: Drug localization in lysosome of human HeLa cells at 5 uM incubated for 3 hrs by Lyso-tracker blue dye based confocal scanning microscopic analysis; type: ADME, subcellular; conditions: not given

Row | Compound | Drug uptake
25 | CCN(CC)Cc1ccc(C2=C(I)C(c3ccc(OC)cc3)=[N+]3C2=Nc2c(-c4ccc(CN(CC)CC)cc4)cc(-c4ccc(OC)cc4)n2[B-]3(F)F)cc1 | Active

tested on: not listed separately; assay: Dark toxicity in mouse B16-F10 cells incubated for 3 hrs by CCK-8 assay; type: cell-based; conditions: not given

Row | Compound | IC50 at 3 h
26 | CCN(CC)Cc1ccc(C2=C(I)C(c3ccc(OC)cc3)=[N+]3C2=Nc2c(-c4ccc(CN(CC)CC)cc4)cc(-c4ccc(OC)cc4)n2[B-]3(F)F)cc1 | > 50 µM

tested on: not listed separately; assay: Drug uptake in lung of female BALB/c nude mouse xenografted with human HeLa cells at 2 mg/kg, iv measured after 3 hrs by fluorescence imaging analysis; type: ADME, organism-based; conditions: in vivo

Row | Compound | Drug uptake
27 | CCN(CC)Cc1ccc(C2=C(I)C(c3ccc(OC)cc3)=[N+]3C2=Nc2c(-c4ccc(CN(CC)CC)cc4)cc(-c4ccc(OC)cc4)n2[B-]3(F)F)cc1 | Active

tested on: not listed separately; assay: Stability of compound in DMF under dark condition; type: physicochemical; conditions: not given

Row | Compound | Stability
28 | CCN(CC)Cc1ccc(C2=C(I)C(c3ccc(OC)cc3)=[N+]3C2=Nc2c(-c4ccc(CN(CC)CC)cc4)cc(-c4ccc(OC)cc4)n2[B-]3(F)F)cc1 | Stable

tested on: not listed separately; assay: Drug uptake in mouse B16-F10 cells measured after 4 hrs by confocal scanning microscopic analysis; type: ADME, cell-based; conditions: b16-f10, 4 h

Row | Compound | Drug uptake
29 | CCN(CC)Cc1ccc(C2=C(I)C(c3ccc(OC)cc3)=[N+]3C2=Nc2c(-c4ccc(CN(CC)CC)cc4)cc(-c4ccc(OC)cc4)n2[B-]3(F)F)cc1 | Active

tested on: not listed separately; assay: Drug localization in mitochondria of human HeLa cells at 5 uM incubated for 3 hrs by Mito-tracker green dye based confocal scanning microscopic analysis; type: ADME; conditions: not given

Row | Compound | Drug uptake
30 | CCN(CC)Cc1ccc(C2=C(I)C(c3ccc(OC)cc3)=[N+]3C2=Nc2c(-c4ccc(CN(CC)CC)cc4)cc(-c4ccc(OC)cc4)n2[B-]3(F)F)cc1 | Not Active
